One assay has as its target T1, human TLR 8 protein (Homo sapiens, UniProt Q9NR97).
T1 construct: expressed in transfected cells; host or cells: HEK293 (HEK-Blue hTLR8)
T1 sequence (Q9NR97 27-1041): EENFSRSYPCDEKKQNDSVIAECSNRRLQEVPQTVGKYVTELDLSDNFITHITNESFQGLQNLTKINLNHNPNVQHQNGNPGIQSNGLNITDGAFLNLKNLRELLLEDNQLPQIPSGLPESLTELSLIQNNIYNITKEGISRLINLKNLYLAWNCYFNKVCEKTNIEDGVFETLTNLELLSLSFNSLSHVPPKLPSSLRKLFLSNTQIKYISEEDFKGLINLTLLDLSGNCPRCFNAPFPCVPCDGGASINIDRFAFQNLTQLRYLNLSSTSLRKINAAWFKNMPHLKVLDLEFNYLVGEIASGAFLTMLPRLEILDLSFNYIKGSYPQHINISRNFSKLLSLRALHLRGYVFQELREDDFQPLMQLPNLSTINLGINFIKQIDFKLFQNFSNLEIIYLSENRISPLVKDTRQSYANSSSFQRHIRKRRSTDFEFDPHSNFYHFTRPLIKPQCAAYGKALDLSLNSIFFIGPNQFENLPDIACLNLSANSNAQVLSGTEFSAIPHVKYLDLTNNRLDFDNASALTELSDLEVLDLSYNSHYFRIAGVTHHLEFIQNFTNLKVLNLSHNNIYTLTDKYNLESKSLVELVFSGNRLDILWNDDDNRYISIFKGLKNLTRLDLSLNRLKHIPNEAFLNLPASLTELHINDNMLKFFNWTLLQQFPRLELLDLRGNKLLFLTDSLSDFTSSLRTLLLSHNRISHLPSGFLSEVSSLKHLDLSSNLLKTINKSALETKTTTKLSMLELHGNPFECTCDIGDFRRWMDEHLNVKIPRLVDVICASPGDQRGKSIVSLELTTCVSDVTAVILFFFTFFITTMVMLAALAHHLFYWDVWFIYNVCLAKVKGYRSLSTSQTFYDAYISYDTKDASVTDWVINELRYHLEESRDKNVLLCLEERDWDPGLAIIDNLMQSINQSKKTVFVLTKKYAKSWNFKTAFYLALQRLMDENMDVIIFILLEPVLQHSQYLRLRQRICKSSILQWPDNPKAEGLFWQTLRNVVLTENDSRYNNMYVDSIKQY
The experiment in a line: TLR8 stimulation determined using HEK-Blue Detection. Type of assay: cell-based. The note with it: HEK-Blue hTLR8 cells, 16 hr, relative to Resiquimod or Motolimod maximum. The method in brief: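 HEK-Blue hTLR8 cells with NF-κB/AP-1-driven SEAP reporter, 40000 cells/well, treated with 10-point dilutions (1 nM-10 uM final, 0.1% DMSO) for 16 hr at 37° C. SEAP read as OD 620-655 nm. EC50 derived from percent of maximum activation set by Resiquimod or Motolimod.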

The target in a further assay is T2, human TLR7 (Homo sapiens, UniProt Q9NYK1).
T2 sequence (Q9NYK1 27-1049): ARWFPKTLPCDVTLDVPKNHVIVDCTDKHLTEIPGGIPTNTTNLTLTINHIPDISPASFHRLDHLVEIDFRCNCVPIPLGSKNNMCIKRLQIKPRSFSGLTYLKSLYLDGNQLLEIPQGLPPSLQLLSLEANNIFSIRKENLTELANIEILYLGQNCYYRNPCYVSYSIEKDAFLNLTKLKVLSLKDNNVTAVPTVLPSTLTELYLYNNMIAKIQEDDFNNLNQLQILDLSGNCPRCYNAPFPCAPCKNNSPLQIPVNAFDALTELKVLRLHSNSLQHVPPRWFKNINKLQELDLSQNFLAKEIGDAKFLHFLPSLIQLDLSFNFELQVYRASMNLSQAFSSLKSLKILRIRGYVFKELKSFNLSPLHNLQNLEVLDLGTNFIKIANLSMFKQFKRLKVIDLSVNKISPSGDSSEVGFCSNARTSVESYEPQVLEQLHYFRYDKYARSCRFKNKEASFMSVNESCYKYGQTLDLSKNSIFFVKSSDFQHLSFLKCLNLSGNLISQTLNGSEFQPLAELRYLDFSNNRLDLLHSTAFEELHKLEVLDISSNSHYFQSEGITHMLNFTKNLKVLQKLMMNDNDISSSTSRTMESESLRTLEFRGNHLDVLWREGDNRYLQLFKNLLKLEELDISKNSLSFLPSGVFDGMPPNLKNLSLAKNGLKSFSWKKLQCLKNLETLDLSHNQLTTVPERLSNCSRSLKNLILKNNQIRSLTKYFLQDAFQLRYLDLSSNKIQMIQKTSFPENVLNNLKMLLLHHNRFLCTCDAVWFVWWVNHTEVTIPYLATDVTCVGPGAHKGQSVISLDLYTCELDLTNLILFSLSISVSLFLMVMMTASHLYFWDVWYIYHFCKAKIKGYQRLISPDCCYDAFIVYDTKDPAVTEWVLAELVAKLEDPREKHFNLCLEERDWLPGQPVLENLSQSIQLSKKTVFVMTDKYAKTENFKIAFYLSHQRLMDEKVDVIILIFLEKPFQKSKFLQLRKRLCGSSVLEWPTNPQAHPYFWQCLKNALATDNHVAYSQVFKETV
The experiment in a line: TLR7 stimulation determined using HEK-Blue Detection. Format: cell-based. Also noted: expressed in transfected cells; host or cells: HEK293 (HEK-Blue hTLR7). The note with it: HEK-Blue hTLR7 cells, HEK-Blue Detection (A77-A124), 16 hr, relative to Resiquimod maximum. In outline: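 HEK-Blue hTLR7 cells (HEK293 with NF-κB/AP-1-driven SEAP reporter), 40000 cells/well, treated with 10-point dilutions from 0.04 nM to 10 μM final in 0.1% DMSO for 16 h at 37° C. SEAP read as OD 620-655 nm; EC50 derived from % of maximum activation with resiquimod.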

This passage reports EC50 results from US12281119B2, “Imidazo[2,1-f][1,2,4]triazin-4-amine derivatives as TLR7 agonist” (BEIGENE, LTD., priority 2019, dated 2025).

Turning to `CCCC(C)Oc1nc(N)c2ncc(Cc3cnc(OCCNC)c(C)c3)n2n1` (centres unmarked) [Compound A78, 7-((5-methyl-6-(2-(methylamino)ethoxy)pyridin-3-yl)methyl)-2-(pentan-2-yloxy)imidazo[2,1-f][1,2,4]triazin-4-amine], the half-maximal effective concentration (EC50) was 1140 nM on human TLR 8 protein and 23 nM on human TLR7.
With `CCCC(CCO)Oc1nc(N)c2ncc(Cc3ccc(OCCNC)nc3)n2n1` (centres unmarked) [Compound A79, 3-((4-amino-7-((6-(2-(methylamino)ethoxy)pyridin-3 yl)methyl)imidazo[2,1-f][1,2,4]triazin-2-yl)oxy)hexan-1-ol], the results for the EC50 at human TLR 8 protein and at human TLR7 were 69 nM and 10 nM, respectively.
Regarding `CNCCOc1ccc(Cc2cnc3c(N)nc(OCC4CCOC4)nn23)cn1` (centres unmarked) [Compound A80, 7-((6-(2-(methylamino)ethoxy)pyridin-3-yl)methyl)-2-((tetrahydrofuran-3-yl)methoxy)imidazo[2,1-f][1,2,4]triazin-4-amine], the results for the concentration for a half-maximal effect (EC50) at human TLR 8 protein and on human TLR7 were more than 10000 nM and 446 nM, respectively.
Turning to `CCC(CC)Oc1nc(N)c2ncc(Cc3ccc(OCCNC)nc3)n2n1` [Compound A83, 7-((6-(2-(methylamino)ethoxy)pyridin-3-yl)methyl)-2-(pentan-3-yloxy)imidazo[2,1-f][1,2,4]triazin-4-amine], the values for the EC50 on human TLR 8 protein and at human TLR7 were 458 nM and 42.6 nM, respectively.
On to `CCCC(CC)Oc1nc(N)c2ncc(Cc3ccc(OCCNC)nc3)n2n1` (centres unmarked) [Compound A84, 2-(hexan-3-yloxy)-7-((6-(2-(methylamino)ethoxy)pyridin-3-yl)methyl)imidazo[2,1-f][1,2,4]triazin-4-amine], for which the EC50 at human TLR 8 protein was 192 nM; at human TLR7, 6.9 nM.
Consider `CCCC(CCO)Oc1nc(N)c2ncc(Cc3ccc(OCCNC)cc3)n2n1` (centres unmarked) [Compound A85, 3-((4-amino-7-(4-(2-(methylamino)ethoxy)benzyl)imidazo [2,1-f][1,2,4]triazin-2-yl)oxy)hexan-1-ol], for which the figures for the EC50 at human TLR 8 protein and on human TLR7 were 41 nM and 4.5 nM, respectively.
The like results for `CCCC(CCO)Oc1nc(N)c2ncc(Cc3ccc(OCCCNC)nc3)n2n1` (centres unmarked) [Compound A86, 3-((4-amino-7-((6-(3-(methylamino)propoxy)pyridin-3-yl)methyl)imidazo[2,1-f][1,2,4]triazin-2-yl)oxy)hexan-1-ol] were, in that order, 541 nM and 57.7 nM.
As to `CCCC(CCC)Oc1nc(N)c2ncc(Cc3ccc(OCCNC)nc3)n2n1` [Compound A87, 2-(heptan-4-yloxy)-7-((6-(2-(methylamino)ethoxy)pyridin-3-yl)methyl)imidazo[2,1-f][1,2,4]triazin-4-amine], the half-maximal effective concentration (EC50) amounted to 434 nM at human TLR 8 protein and 10.5 nM at human TLR7.
`CNCCOc1ccc(Cc2cnc3c(N)nc(OCC4CCCO4)nn23)cn1` (centres unmarked) [Compound A88, 7-((6-(2-(methylamino)ethoxy)pyridin-3-yl)methyl)-2-((tetrahydrofuran-2-yl)methoxy)imidazo[2,1-f][1,2,4]triazin-4-amine]: the EC50 on human TLR 8 protein and on human TLR7 was more than 10000 nM in each case.
As for `CC[C@H](C)Oc1nc(N)c2ncc(Cc3ccc(OCCNC)nc3)n2n1` [Compound A89, (S)-2-(sec-butoxy)-7-((6-(2-(methylamino)ethoxy)pyridin-3-yl)methyl)imidazo[2,1-f][1,2,4]triazin-4-amine], the EC50 on human TLR 8 protein worked out at 199 nM; on human TLR7, 10 nM.
Regarding `CCC[C@H](C)Oc1nc(N)c2ncc(Cc3ccc(OCCNC)nc3)n2n1` [Compound A90, (S)-7-((6-(2-(methylamino)ethoxy)pyridin-3-yl)methyl)-2-(pentan-2-yloxy)imidazo[2,1-f][1,2,4]triazin-4-amine], the figures for the half-maximal effective concentration (EC50) at human TLR 8 protein and at human TLR7 were 112 nM and 8.9 nM, respectively.
As for `CCCC(CCO)Oc1nc(N)c2ncc(Cc3ccc(OCCNC)c(F)c3)n2n1` (centres unmarked) [Compound A91, 3-((4-amino-7-(3-fluoro-4-(2-(methylamino)ethoxy)benzyl)imidazo[2,1-f][1,2,4]triazin-2-yl)oxy)hexan-1-ol], the values for the EC50 at human TLR 8 protein and at human TLR7 were 15 nM and 2.1 nM, respectively.
For the compound `CCCC(CCO)Oc1nc(N)c2ncc(Cc3ccc(N(C)CCNC)cc3)n2n1` (centres unmarked) [Compound A94, 3-((4-amino-7-(4-(methyl(2-(methylamino)ethyl)amino)benzyl)imidazo[2,1-f][1,2,4]triazin-2-yl)oxy)hexan-1-ol], the EC50 was 146 nM at human TLR 8 protein and 13.8 nM on human TLR7.
Consider `CCCC(CCO)Oc1nc(N)c2ncc(Cc3ccc(CCNC)cc3)n2n1` (centres unmarked) [Compound A95, 3-((4-amino-7-(4-(2-(methylamino)ethyl)benzyl)imidazo[2,1-f][1,2,4]triazin-2-yl)oxy)hexan-1-ol], for which the EC50 at human TLR 8 protein was 19 nM; at human TLR7, 8 nM.
In the case of `CCCC(CCO)Oc1nc(N)c2ncc(Cc3ccc(OCCNC)nc3OC)n2n1` (centres unmarked) [Compound A96, 3-((4-amino-7-((2-methoxy-6-(2-(methylamino)ethoxy)pyridin-3-yl)methyl)imidazo[2,1-f][1,2,4]triazin-2-yl)oxy)hexan-1-ol], the 50% effective concentration (EC50) at human TLR 8 protein worked out at 29 nM; on human TLR7, 4.3 nM.
Regarding `CCCC(CCO)Oc1nc(N)c2ncc(Cc3ccc(OCCNC)cc3F)n2n1` (centres unmarked) [Compound A97, 3-((4-amino-7-(2-fluoro-4-(2-(methylamino)ethoxy)benzyl)imidazo[2,1-f][1,2,4]triazin-2-yl)oxy)hexan-1-ol], the EC50 on human TLR 8 protein amounted to 10 nM; on human TLR7, 1 nM.
In the same order, the values of `CCCC(CCO)Oc1nc(N)c2ncc(Cc3ccc(OCCNC)c(OC)c3)n2n1` (centres unmarked) [Compound A98, 3-((4-amino-7-(3-methoxy-4-(2-(methylamino)ethoxy)benzyl)imidazo[2,1-f][1,2,4]triazin-2-yl)oxy)hexan-1-ol] are 163 nM and 11 nM.
With `CCC[C@H](C)Oc1nc(N)c2ncc(Cc3ccc(OCCNC)c(F)c3)n2n1` [Compound A99, (S)-7-(3-fluoro-4-(2-(methylamino)ethoxy)benzyl)-2-(pentan-2-yloxy)imidazo[2,1-f][1,2,4]triazin-4-amine], the values for the 50% effective concentration (EC50) at human TLR 8 protein and on human TLR7 were 129 nM and 14.4 nM, respectively.
On to `CCC[C@H](C)Oc1nc(N)c2ncc(Cc3ccc(OCCNC)cc3)n2n1` [Compound A100, (S)-7-(4-(2-(methylamino)ethoxy)benzyl)-2-(pentan-2-yloxy)imidazo[2,1-f][1,2,4]triazin-4-amine], for which the EC50 at human TLR 8 protein was determined as 195 nM; on human TLR7, 15 nM.
